Source: patent US10738031B2, “N-[(heteroaryloxy)propanyl]heteroaryl carboxamides as antagonists of orexin subtype 1 receptor activity” (Boehringer Ingelheim International GmbH, priority 2016, dated 2020)
Like-named read-outs stand apart in the source and are kept apart here.

How the values were obtained:
OX2R [1] = target: T1, OX2R (Homo sapiens, UniProt O43614); assay: OX2R potency as described in WO2016/034882; settings: read-out: OX2R IC50 (corresponds to pIC50) (converted)
T1 sequence (O43614 1-444): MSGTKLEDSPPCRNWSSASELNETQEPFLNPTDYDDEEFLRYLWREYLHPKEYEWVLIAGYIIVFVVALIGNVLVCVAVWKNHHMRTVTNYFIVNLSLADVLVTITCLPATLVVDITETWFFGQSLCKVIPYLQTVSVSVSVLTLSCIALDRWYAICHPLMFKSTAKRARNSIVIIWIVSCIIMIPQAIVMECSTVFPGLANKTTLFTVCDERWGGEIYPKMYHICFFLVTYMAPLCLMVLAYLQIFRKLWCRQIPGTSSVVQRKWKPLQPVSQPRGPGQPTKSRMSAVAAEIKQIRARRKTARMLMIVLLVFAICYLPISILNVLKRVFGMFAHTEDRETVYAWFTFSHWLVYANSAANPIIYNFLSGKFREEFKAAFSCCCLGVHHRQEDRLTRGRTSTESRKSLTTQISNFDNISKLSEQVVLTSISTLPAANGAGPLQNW

OX1R = target: T2, OX1R (Homo sapiens, UniProt O43613); assay: OX1R potency as described in WO2016/034882; settings: for IC50: read-out: OX1R IC50 (corresponds to pIC50) (converted)
T2 sequence (O43613 1-425): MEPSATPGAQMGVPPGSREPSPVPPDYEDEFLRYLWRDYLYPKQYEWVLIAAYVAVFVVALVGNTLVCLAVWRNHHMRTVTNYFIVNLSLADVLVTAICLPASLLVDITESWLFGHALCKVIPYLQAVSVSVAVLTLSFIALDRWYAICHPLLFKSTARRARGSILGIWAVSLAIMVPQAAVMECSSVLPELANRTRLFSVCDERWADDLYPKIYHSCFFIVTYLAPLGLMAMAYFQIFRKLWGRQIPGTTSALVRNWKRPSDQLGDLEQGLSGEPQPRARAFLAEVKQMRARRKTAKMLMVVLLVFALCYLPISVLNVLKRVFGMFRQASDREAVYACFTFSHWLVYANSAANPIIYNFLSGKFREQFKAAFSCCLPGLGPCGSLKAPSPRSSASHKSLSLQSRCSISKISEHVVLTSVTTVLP

OX2R [2] = target: T1, OX2R; settings: cited from earlier work
human Orexin 1 receptor = target: T3, human Orexin 1 receptor (Homo sapiens, UniProt O43613); assay: Assay A: OX1R IP1 (in vitro OX1R potency); type: cell-based; settings: for Kb: Table 3
T3 construct: stably expressing the full-length human Orexin 1 receptor; expressed in transfected cells; host or cells: CHO-K1 (CHO-K1/hOX1), co-expressing aequorin
T3 sequence (O43613 1-425): T2 sequence (O43613 1-425)

[3] = Assay C: Human MST t1/2 (stability in human liver microsomes); type: in vitro ADME; settings: for half-life: human liver microsomes
human orexin 2 receptor = target: T4, human orexin 2 receptor (Homo sapiens, UniProt O43614); assay: Assay B: OX2R IP1 (in vitro OX2R potency); type: cell-based; settings: Table 3; 0.5 nM Orexin A concentration
T4 construct: stably expressing the full-length human orexin 2 receptor; expressed in transfected cells; host or cells: CHO-K1 (CHO-K1/hOX2), co-expressing aequorin
T4 sequence (O43614 1-444): T1 sequence (O43614 1-444)
Source text: Activation of the orexin receptors expressed in cell lines results in an increase in intracellular IP3 concentration. IP1, a downstream metabolite of IP3, accumulates in cells following receptor activation and is stable in the presence of LiCl. Using Homogeneous Time-Resolved Fluorescence technology with Lumi4-Tb cryptate (commercially available from Cisbio Bioassay.) and a suitable fluorescence plate reader. This functional response is detectable and quantifiable as described in Trinquet et al. Anal. […] Curr. Chem. Genomics 2009, 3, 22-32. This technique is used to characterize pharmacological modification of the orexin receptors. B. In Vitro Testing of OX2R Potency: OX2R IP1 IP1 measurements are performed in CHO-K1 cells stably expressing the full-length human orexin 2 receptor and the aequorin photoprotein. Cells are cultivated in Ham's nutrient mixture F12 medium with 10% fetal calf serum, in a 37° C., 95% humidity and 5% CO2 incubator. The CHO-K1/hOX2 cell mass is expanded to larger cell numbers. The cells are obtained as frozen cells in cryo-vials and stored until use at -150° C. The viability of the cells after thawing is >90%. In preparation for the assay, 24 hours before the assay, the cells are thawed at 37° C. and immediately diluted with cell culture medium. After centrifugation, the cell pellet is resuspended in medium and then distributed into the assay plates with a density of 5000 cells/25 μL per well. The plates are incubated for one hour at room temperature to reduce edge effects before they are incubated for 24 hours at 37° C./5% CO2. […] On the day of the assay, cells in the plate are washed twice with 60 μL assay buffer (20 μL buffer remained in the wells after washing), followed by adding 5 μL per well of compounds diluted in assay buffer. […] The assay plate is incubated for 60 minutes at 37° C. Then 5 μL per well of Anti-IP1-Cryptate Tb solution and 5 μL per well of IP1-d2 dilution are added to all well of the plate and the plate is incubated for a further 60 minutes light protected at room temperature. […] The ratio between the emission at 665 nm and 615 is calculated by the reader. […] AssayExplorer (Accelrys). In order to establish an agonist concentration independent parameter, Kb values are calculated using the following equation: […] Sci. 1993, 14(4), 110-112).

Row | SMILES | OX2R Kb/OX1R Kb (human Orexin 1 receptor) | Kb (human Orexin 1 receptor; Orexin A concentration 50 nM) [nM] | half-life [3] [min] | Kb (human Orexin 1 receptor; Orexin A concentration 0.5 nM) [nM] | Kb (human orexin 2 receptor) [nM] | also measured
1 | CC[C@@H](CNc1ncc(C(F)(F)F)cn1)N(C)C(=O)c1nc(C)ccc1-n1nccn1 [Ex 46 in WO2016/ 034882] | – | – | – | – | – | IC50 (OX2R [1]; Table 1 of WO2016/034882): 7800 nM; IC50 (OX2R [1]; Table 3 of WO2016/034882): ≥ 10000 nM; OX2R IC50/OX1R IC50 (OX1R; Table 1 of WO2016/034882): 390; OX2R IC50/OX1R IC50 (OX1R; Table 2 of WO2016/034882): > 312; IC50 (OX1R; Table 2 of WO2016/034882): 32 nM; OX2R IC50/OX1R IC50 (OX1R; Table 3 of WO2016/034882): 3200; IC50 (OX1R; Table 3 of WO2016/034882): 3.2 nM; OX2R pIC50 (OX2R [2]; Table 2 of WO2016/034882): < 5.0; OX2R pIC50 (OX2R [2]; Table 3 of WO2016/034882): < 5.0
2 | CC[C@@H](CNc1cnc(C(F)(F)F)cn1)N(CC)C(=O)c1nc(C)ccc1-n1nccn1 [Ex 70 in WO2016/ 034882] | 319 | 0.135 | – | – | – | IC50 (OX2R [1]; Table 3 of WO2016/034882): > 5000 nM; IC50 (OX1R; Table 3 of WO2016/034882): 1.6 nM
3 | CC[C@@H](CNc1ncc(C(F)(F)F)cn1)N(CC)C(=O)c1nc(C)ccc1-n1nccn1 [Ex 73 in WO2016/ 034882] | – | – | – | – | – | OX2R pIC50 (OX2R [2]; Table 3 of WO2016/034882): < 6.0
4 | CCN(C(=O)c1cnccc1-n1nccn1)[C@@H](C)COc1ccc(Cl)cn1 [Example 48] | 147 | – | 33 | 2.6 | 381 | –
5 | CCN(C(=O)c1nccc(C(F)(F)F)c1-c1ccn(C)n1)[C@@H](C)COc1ccc(C(F)(F)F)cn1 [Example 50] | 236 | 0.11 | 23 | – | 26 | –
6 | CCN(C(=O)c1cccnc1-n1nccn1)[C@@H](C)COc1ccc(Cl)cn1 [Example 51] | 138 | – | > 130 | 8.3 | 1140 | –
7 | CCN(C(=O)c1nc(C)ccc1-c1ncccn1)[C@@H](C)COc1cnc(C(F)(F)F)cn1 [Example 53] | 105 | – | > 130 | 3.2 | 337 | stability in human liver microsomes (in words) ([3]; compared with closest prior art compounds in WO2016/034882): markedly improved stability in human liver microsomes
8 | CCN(C(=O)c1cc(OC)cnc1-n1nccn1)[C@@H](C)COc1ncc(C(F)(F)F)cc1F [Example 54] | 649 | – | > 130 | 0.89 | 578 | –
9 | CCN(C(=O)c1cc(OC)cnc1-n1nccn1)[C@@H](C)COc1ccc(C(F)(F)F)cn1 [Example 56] | – | 0.49 | > 130 | 0.5 | 260 | –
10 | CCN(C(=O)c1ncccc1-n1nccn1)[C@@H](C)COc1ncc(C(F)(F)F)cc1F [Example 57] | 233 | – | 56 | 1.8 | 419 | –
11 | CCN(C(=O)c1c(F)ccnc1-c1ccn(C)n1)[C@@H](C)COc1ccc(C(F)(F)F)cn1 [Example 58] | 93 | – | 41 | 3.5 | 327 | –
12 | CCN(C(=O)c1cc(F)cnc1-c1nnc(C)o1)[C@@H](C)COc1ccc(C(F)(F)F)cn1 [Example 59] | 214 | – | > 130 | 31 | 6640 | –
13 | CCN(C(=O)c1ccc(C)nc1-n1nccn1)[C@@H](C)COc1ncc(C(F)(F)F)cc1F [Example 60] | – | 0.66 | > 130 | 0.67 | 882 | –
14 | CCN(C(=O)c1cccnc1-n1nccn1)[C@@H](C)COc1ccc(C(F)(F)F)cn1 [Example 61] | 294 | – | > 130 | 2.31 | 678 | –
15 | CCN(C(=O)c1ncc(C)cc1-n1cccn1)[C@@H](C)COc1ccc(C(F)(F)F)cn1 [Example 64] | 688 | 0.4 | 20 | – | 275 | –
16 | CCN(C(=O)c1cnccc1-n1cccn1)[C@@H](C)COc1ccc(C(F)(F)F)cn1 [Example 69] | 139 | – | 13 | 2.2 | 305 | –
17 | CCN(C(=O)c1cc(F)cnc1-c1ncccn1)[C@@H](C)COc1ccc(C(F)(F)F)cn1 [Example 70] | 691 | – | > 130 | 1.5 | 1040 | –
18 | CCN(C(=O)c1ncccc1-n1nccn1)[C@@H](C)COc1ccc(Cl)cn1 [Example 71] | 113 | – | 63 | 3 | 339 | –
19 | CCN(C(=O)c1cc(Cl)cnc1-n1nccn1)[C@@H](C)COc1ccc(C(F)(F)F)cn1 [Example 72] | – | 0.24 | > 130 | 0.37 | 250 | –
